In ChEMBL document CHEMBL1914363, “Identification of a naturally occurring quinazolin-4(3H)-one firefly luciferase inhibitor” (J Nat Prod, 2011):
Active and inactive are the calls of the source. No cut-off for these calls is given here.

Legend:
[1] = target: T1, Luciferin 4-monooxygenase (Luciola lateralis) (UniProt Q01158); assay: Inhibition of firefly luciferase by ATPlite assay in presence of AMPK; conditions: Aquatica lateralis
T1 sequence (whole entry): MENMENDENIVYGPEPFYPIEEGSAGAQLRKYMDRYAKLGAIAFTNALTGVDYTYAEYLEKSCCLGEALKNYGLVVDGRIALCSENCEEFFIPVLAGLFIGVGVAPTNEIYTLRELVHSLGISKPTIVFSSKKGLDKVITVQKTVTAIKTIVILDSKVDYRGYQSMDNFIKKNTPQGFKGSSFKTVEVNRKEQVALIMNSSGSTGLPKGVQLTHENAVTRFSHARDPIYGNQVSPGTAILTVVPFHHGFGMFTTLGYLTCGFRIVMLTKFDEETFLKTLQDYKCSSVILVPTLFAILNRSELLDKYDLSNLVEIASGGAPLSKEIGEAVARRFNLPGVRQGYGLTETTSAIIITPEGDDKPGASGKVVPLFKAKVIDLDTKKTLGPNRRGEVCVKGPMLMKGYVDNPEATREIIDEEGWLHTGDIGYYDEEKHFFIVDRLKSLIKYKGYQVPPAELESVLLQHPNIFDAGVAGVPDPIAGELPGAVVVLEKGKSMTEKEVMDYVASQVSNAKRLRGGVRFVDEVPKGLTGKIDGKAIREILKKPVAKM

[2] = target: T2, Luciferin 4-monooxygenase (Luciola lateralis, UniProt Q01158); assay: Inhibition of firefly luciferase by ATPlite assay in absence of AMPK; parameters: species or system Aquatica lateralis
T2 sequence (Q01158 whole entry): T1 sequence (whole entry)

CNc1ccc(-c2nc3ccccc3c(=O)[nH]2)cc1
inhibition [1]: Active
EC50 [2]: 730 nM
